The target of one test is Tubulin (Bos taurus, UniProt Q6B856+Q862L2+Q862F3). The test is described as follows: Inhibition of bovine tubulin polymerization by turbidity assay. It is filed as protein assay.
The next test has as its system SK-MEL-5. The test is described as follows: Cytotoxicity against human SK-MEL-5 cells. In kind it is functional.
A further test relates to SW-620. In words: Cytotoxicity against human SW620 cells. It is filed as functional.
Test [1] is described as follows: Cytotoxicity against human OVCAR3 cells. In kind it is functional. The note with it: OVCAR-3, read-out: pGI50 (converted).
Test [2] has as its system Paracentrotus lividus. In words: Antiproliferative activity in sea urchin embryo assessed as destabilization of microtubule by tuberculate eggs after 15 mins to 20 hrs. In kind it is functional, organism-based.
A further test relates to HT-29. In words: Cytotoxicity against human HT-29 cells. It is filed as functional.
A further test relates to MDA-MB-468. In words: Cytotoxicity against human MDA-MB-468 cells. In kind it is functional.
The next test deals with SF-539. The test is described as follows: Cytotoxicity against human SF539 cells. It is filed as functional. To be noted: read-out: pGI50 (converted).
The next test relates to TK-10. The test is described as follows: Cytotoxicity against human TK10 cells. It is filed as functional.
For a further test, the system named is HOP-62. In words: Cytotoxicity against human HOP62 cells. It is filed as functional.
The test system of another test is NCI-H460. In words: Cytotoxicity against human NCI-H460 cells. In kind it is functional.
For a further test, the system named is K562. The test is described as follows: Cytotoxicity against human K562 cells. In kind it is functional.
In another test the test system is LOX IMVI. In words: Cytotoxicity against human LOXIMVI cells. In kind it is functional.
The next test has as its system NCI-H23. The test is described as follows: Cytotoxicity against human NCI-H23 cells. In kind it is functional.
A further test deals with IGROV-1. The test is described as follows: Cytotoxicity against human IGROV1 cells. In kind it is functional.
Another test has as its system RXF 393. The test is described as follows: Cytotoxicity against human RXF393 cells. It is filed as functional. To be noted: read-out: pGI50 (converted).
Test [3] in a line: Cytotoxicity against human NCI60 cells. It is filed as functional.
Another test relates to HL-60(TB). In words: Cytotoxicity against human HL-60(TB) cells. It is filed as functional.
The test system of another test is DU-145. The test is described as follows: Cytotoxicity against human DU145 cells. In kind it is functional.
The subject of another test is KM12. The test is described as follows: Cytotoxicity against human KM12 cells. It is filed as functional.
The test system of a further test is NCI-H522. The test is described as follows: Cytotoxicity against human NCI-H522 cells. In kind it is functional.
The next test has as its system SK-MEL-2. In words: Cytotoxicity against human SK-MEL-2 cells. In kind it is functional.
Another test deals with A549. In words: Cytotoxicity against human A549 cells. In kind it is functional.
Test [4] deals with Paracentrotus lividus. The test is described as follows: Antiproliferative activity in sea urchin embryo assessed as antimitotic activity by measuring cleavage arrest exposed for 8 to 20 mins after fertilization and 45 to 55 mins before first mitotic cycle completion measured 2.5 to […] after fertilization. It is filed as functional.
The next test deals with A498. The test is described as follows: Cytotoxicity against human A498 cells. In kind it is functional.
Test [5] in a line: Cytotoxicity against human UACC257 cells. To be noted: UACC-257. It is filed as functional.
The subject of the next test is MOLT-4. In words: Cytotoxicity against human MOLT4 cells. It is filed as functional.
The subject of the next test is HCC 2998. In words: Cytotoxicity against human HCC2998 cells. In kind it is functional.
The subject of another test is SF-295. In words: Cytotoxicity against human SF295 cells. It is filed as functional.
Test [6] in a line: Cytotoxicity against human OVCAR8 cells. It is filed as functional. The note with it: OVCAR-8, read-out: pGI50 (converted).
Another test concerns BT-549. In words: Cytotoxicity against human BT549 cells. It is filed as functional.
A further test deals with HOP-92. In words: Cytotoxicity against human HOP92 cells. It is filed as functional.
For another test, the system named is SNB-75. The test is described as follows: Cytotoxicity against human SNB75 cells. In kind it is functional.
The test system of another test is MDA-MB-231. The test is described as follows: Cytotoxicity against human MDA-MB-231 cells. It is filed as functional.
Test [7] can be described thus: Cytotoxicity against human OVCAR5 cells. It is filed as functional. To be noted: OVCAR-5.
The subject of a further test is SNB-19. In words: Cytotoxicity against human SNB19 cells. In kind it is functional.
Test [8] in a line: Cytotoxicity against human OVCAR4 cells. In kind it is functional. To be noted: OVCAR-4.
The nature of test [9]: Cytotoxicity against human UO31 cells. In kind it is functional. The note with it: UO-31.
Test [10] in a line: Cytotoxicity against human HCT15 cells. It is filed as functional. To be noted: HCT-15.
The test system of a further test is SN12C. In words: Cytotoxicity against human SN12C cells. In kind it is functional.
Test [11] is described as follows: Cytotoxicity against human SKOV3 cells. It is filed as functional. The note with it: SK-OV-3.
Test [12] is described as follows: Cytotoxicity against human PC3 cells. The note with it: PC-3. It is filed as functional.
A further test concerns NCI-H226. In words: Cytotoxicity against human NCI-H226 cells. In kind it is functional.
A further test relates to SF-268. In words: Cytotoxicity against human SF268 cells. In kind it is functional.
The test system of a further test is SR. The test is described as follows: Cytotoxicity against human SR cells. It is filed as functional.
The nature of test [13]: Cytotoxicity against human UACC62 cells. In kind it is functional. The note with it: UACC-62.
The test system of another test is SK-MEL-28. The test is described as follows: Cytotoxicity against human SK-MEL-28 cells. In kind it is functional.
The test system of the next test is T47D. The test is described as follows: Cytotoxicity against human T47D cells. In kind it is functional.
A further test deals with MDA-MB-435. In words: Cytotoxicity against human MDA-MB-435 cells. In kind it is functional. The note with it: read-out: pGI50 (converted).
In another test the test system is NCI-H322M. In words: Cytotoxicity against human NCI-H322M cells. In kind it is functional.
Test [14] has as its system Paracentrotus lividus. The test is described as follows: Antiproliferative activity in sea urchin embryo assessed as antimitotic activity by measuring cleavage alteration exposed for 8 to 20 mins after fertilization and 45 to 55 mins before first mitotic cycle completion measured 2.5 to […] after fertilization. In kind it is functional.
A short description of test [15]: Cytotoxicity against human NCI-ADR-RES cells. In kind it is functional. The note with it: read-out: pGI50 (converted).
The test system of a further test is CCRF-CEM. In words: Cytotoxicity against human CCRF-CEM cells. It is filed as functional.
The test system of another test is U-251. In words: Cytotoxicity against human U251 cells. In kind it is functional.
Test [16] can be described thus: Cytotoxicity against human Hs578T cells. In kind it is functional. To be noted: Hs-578T.
Test [17] concerns Paracentrotus lividus. In words: Antiproliferative activity in sea urchin embryo assessed as destabilization of microtubule by measuring embryo spinning after 15 mins to 20 hrs. In kind it is functional.
Another test relates to M14. In words: Cytotoxicity against human M14 cells. In kind it is functional.
Another test concerns RPMI-8226. In words: Cytotoxicity against human RPMI8226 cells. In kind it is functional.
For another test, the system named is MCF7. In words: Cytotoxicity against human MCF7 cells. It is filed as functional.
The subject of the next test is ACHN. The test is described as follows: Cytotoxicity against human ACHN cells. In kind it is functional.
A further test relates to Malme-3M. In words: Cytotoxicity against human MALME-3M cells. It is filed as functional.
In a further test the test system is 786-0. The test is described as follows: Cytotoxicity against human 786-0 cells. It is filed as functional.
Another test concerns COLO 205. In words: Cytotoxicity against human COLO205 cells. In kind it is functional.
Test [18] in a line: Cytotoxicity against human HCT116 cells. In kind it is functional. To be noted: HCT-116.

Activity calls are given as the source filed them. The rule behind the calls is not given here.

Consider `Nc1nonc1-c1nc2ccccc2n1Cc1cccc(C(F)(F)F)c1`, for which the IC50 at Tubulin was 13270 nM.
On the same count and under the same terms, with `Nc1nonc1-c1nc2ccccc2n1Cc1cccc(Br)c1` the figure was 2040 nM.
In turn, `Nc1nonc1-c1nc2ccccc2n1CC(=O)Nc1ccccc1Cl` gave an IC50 on Tubulin of 7360 nM.
On the same count and under the same terms, then `Nc1nonc1-c1nc2ccccc2n1Cc1cccc2ccccc12`, with 7030 nM.
For the compound `COc1cc(Cn2c(-c3nonc3N)nc3ccccc32)ccc1C`, the GI50 was 372 nM in the test on SK-MEL-5; 331 nM with SW-620; 309 nM in test [1]; 363 nM in the test with HT-29; 229 nM in the test on MDA-MB-468; 200 nM in the test with SF-539. Further, the GI50 in the test with TK-10 is 1410 nM; in the test with HOP-62, 617 nM; in the test with NCI-H460, 355 nM; in the test with K562, 389 nM; with LOX IMVI, 661 nM; in the test with NCI-H23, 1150 nM. The GI50 in the test on IGROV-1 was 724 nM; in the test on RXF 393, 269 nM; in test [3], 479 nM; in the test on HL-60(TB), 275 nM; with DU-145 it was 513 nM; with KM12, 437 nM. Also, the GI50 in the test with NCI-H522 was 251 nM; with SK-MEL-2, 407 nM; with A549 it was 562 nM; in the test with A498, 89.1 nM; in test [5], 417 nM; with MOLT-4, 646 nM. For the same compound, the GI50 was 1450 nM in the test on HCC 2998; 389 nM with SF-295; 759 nM in test [6]; 513 nM in the test with BT-549; 363 nM in the test on HOP-92; 263 nM in the test with SNB-75. The GI50 in the test with MDA-MB-231 is 1450 nM; in test [7], 776 nM; with SNB-19 it was 724 nM; in test [8], 646 nM; in test [9], 575 nM; in [10], 457 nM. The GI50 in the test on SN12C is 676 nM; in [11] it was 537 nM; in test [12], 339 nM; in the test with NCI-H226, 955 nM; in the test with SF-268 it was 776 nM; in the test on SR, 389 nM. The GI50 in test [13] was 617 nM; with SK-MEL-28 it was 794 nM; in the test on T47D, 575 nM; in the test on MDA-MB-435, 170 nM; in the test with NCI-H322M it was 537 nM; in test [15] it was 389 nM. For the same compound, the GI50 is 380 nM in the test on CCRF-CEM; 537 nM in the test with U-251; 288 nM in test [16]; 550 nM with M14; 447 nM with RPMI-8226; 389 nM in the test on MCF7. The GI50 in the test with ACHN was 724 nM; in the test on Malme-3M, 525 nM; in the test with 786-0 it was 646 nM; in the test on COLO 205, 372 nM; in test [18], 513 nM. For the same compound, the result with Paracentrotus lividus [2] was Active. The EC is 2 µM in the test with Paracentrotus lividus [4], 0.2 µM in the test on Paracentrotus lividus [14] and >4 µM in the test on Paracentrotus lividus [17].

For the origin of these results see ChEMBL document CHEMBL3421596, “A facile synthesis and microtubule-destabilizing properties of 4-(1H-benzo[d]imidazol-2-yl)-furazan-3-amines” (Eur J Med Chem, 2015).
